Positions of bridges follow the written chain, without caps; N, C: chain ends. Non-standard residues stand in square brackets, D forms with d. Residues, ends and D or L forms follow the SMILES beside them. Cha = N[C@@H](CC1CCCCC1)C(=O)O
Tests used:
[1] = tested on: release of growth hormone; assay: release of growth hormone in pentobarbital-stimulated rats; assay type: in vivo, Spraque-Dawley rats; settings: 50 μg./rat subcutaneously, sodium pentobarbital stimulated, somatostatin comparator run in each set
Protocol: D-Phe^11 -somatostatin, L-Cha^11 -somatostatin, and L-Leu^11 -somatostatin also were tested for their activity with respect to the release of growth hormone. The procedure which was employed is carried out using mature male Spraque-Dawley rats (Laboratory Supply Company, Indianapolis, Indiana). The test is a modification of the method of P. Brazeau, W. Vale, and R. Guilleman, Endocrinology, 94 184 (1974). In each assay, a set comprising three groups of eight rats each was employed. First, sodium pentobarbital was administered to all of the rats of the particular set to stimulate growth hormone secretion. In each set, one group served as control group and received only saline. A second group received somatostatin at 50 μg./rat, subcutaneously. The third group received test compound at 50 μg./rat, subcutaneously. The degree of inhibition of serum growth hormone concentration then was determined with respect to the control group, and the relative activities of test compound and somatostatin itself were compared.

gastric HCl secretion = assay: in vivo inhibition of gastric acid secretion in dogs with chronic fistula and Heidenhain pouch; settings: for effect equivalent to that dose of somatostatin: extrapolated against the dose-response curve of somatostatin, test compound 3 μg/kg-hr.; for activity relative to that of somatostatin: gastric acid secretion in dogs, relative potency expressed as percent activity
Protocol: D-Phe^11 -somatostatin and L-Cha^11 -somatostatin also were tested in dogs for their in vivo inhibition of gastric acid secretion. In six dogs with chronic fistula and Heidenhain pouch, gastric HCl secretion was induced by infusion of the C-terminal tetrapeptide of gastrin at 0.5 μg/kg-hr. One dog served as control, receiving only the tetrapeptide. Another dog received the tetrapeptide and somatostatin while the test compound was administered to the remaining dogs in place of somatostatin. After one hour of steady state secretion of HCl, somatostatin or the test compound was infused at 3 μg/kg-hr. for one hour. Collection of gastric acid samples was continued for an additional 1.5 hours at 15 minute intervals. The samples were titrated to pH 7 with an automatic titrator. The maximal inhibitory effect of the test compounds was extrapolated against the dose-response curve of somatostatin, and the relative potency of the analogs to that of somatostatin is expressed as percent activity. […] This effect is equivalent to that of 0.086 μg/kg-hr. of somatostatin. Its activity relative to that of somatostatin thus is 2.87%. […] This effect is equivalent to that of 0.0825 μg/kg-hr. of somatostatin. Its activity relative to that of somatostatin therefore is 2.7%.

glucagon secretion [2] = assay: in vivo inhibition of glucagon secretion upon stimulation with L-alanine; parameters: species or system mongrel dogs; settings: dogs, intravenous infusion; for effect on the increase in serum glucagon concentration produced by infusion of L-alanine: D-Phe11 0.211, L-Cha11 0.235, L-Leu11 0.195 μg/kg/min., L-alanine 1 mmol/kg; for effect on basal serum glucagon concentration: L-Cha11 0.235, L-Leu11 0.195 μg/kg/min.
Protocol: (§1) The tetradecapeptides were tested for their in vivo activity in inhibiting glucagon and insulin secretion upon stimulation with L-alanine. Normal mongrel dogs of either sex were fasted overnight. Control blood samples were obtained, and then an intravenous infusion of saline, somatostatin, or test compound was started. After 30 minutes, L-alanine additionally was administered intravenously for a period of 15 minutes. The infusion of saline, somatostatin, or test compound was continued for 15 minutes after completion of the alanine infusion. The total dose of somatostatin or test compound which was infused is 200-500 μg/dog (about 0.20-0.30 μg/kg./minute), and the total dose of L-alanine infused was 1 mmol/kg. The infusion of L-alanine produced an abrupt increase in the serum concentration of glucagon and insulin. This returned to control concentration when the alanine infusion was discontinued.

glucagon secretion [3] = assay: in vivo inhibition of glucagon secretion upon stimulation with insulin; parameters: species or system mongrel dogs; settings: dogs, intravenous infusion for two hours; D-Phe11 0.128, L-Cha11 0.130, L-Leu11 0.129 μg/kg/min.; insulin 0.3 units/kg.
Protocol: The tetradecapeptides also were evaluated for in vivo activity in inhibiting glucagon secretion upon stimulation with insulin. Normal mongrel dogs of either sex were fasted overnight. After control blood samples had been obtained, an intravenous infusion of saline, somatostatin, or the test compound was commenced. After 15 minutes, insulin, 0.3 units/kg., was injected intravenously. The infusion of saline, somatostatin, or the test compound was continued for two hours, and blood samples were obtained at various intervals throughout the test. The total dose of the somatostatin or test compound ranged from 120-260 μg./dog (0.07-0.13 μg/kg/min.). Administration of insulin produced a reduction in the blood glucose concentration and an increase in serum glucagon concentration.

insulin secretion = assay: in vivo inhibition of insulin secretion upon stimulation with L-alanine; parameters: species or system mongrel dogs; settings: for effect on the increase in serum insulin concentration produced by infusion of L-alanine / effect on basal serum insulin concentration: dogs, intravenous infusion; for effect on the increase in serum insulin concentration produced by infusion of L-alanine: D-Phe11 0.211, L-Cha11 0.235, L-Leu11 0.195 μg/kg/min., L-alanine 1 mmol/kg; for effect on basal serum insulin concentration: L-Cha11 0.235, L-Leu11 0.195 μg/kg/min., somatostatin about 0.20-0.30 μg/kg./minute
Protocol: as §1

| SMILES | inhibition of the increase in serum growth hormone concentration over control [1] [%] | effect equivalent to that dose of somatostatin (gastric HCl secretion) [μg/kg-hr.] | activity relative to that of somatostatin (gastric HCl secretion) [%] | effect on the increase in serum glucagon concentration produced by infusion of L-alanine (glucagon secretion [2]) | effect on the increase in serum glucagon concentration produced by insulin administration (glucagon secretion [3]) | effect on the increase in serum insulin concentration produced by infusion of L-alanine (insulin secretion) | effect on basal serum glucagon concentration (glucagon secretion [2]) | effect on basal serum insulin concentration (insulin secretion) | inhibitory effect upon the pancreatic secretion of insulin (insulin secretion; general statement) |
| --- | --- | --- | --- | --- | --- | --- | --- | --- | --- |
| C[C@H](N)C(=O)NCC(=O)N[C@H]1CSSC[C@@H](C(=O)O)NC(=O)[C@H](CO)NC(=O)[C@H]([C@@H](C)O)NC(=O)[C@@H](Cc2ccccc2)NC(=O)[C@H]([C@@H](C)O)NC(=O)[C@H](CCCCN)NC(=O)[C@H](Cc2c[nH]c3ccccc23)NC(=O)[C@H](Cc2ccccc2)NC(=O)[C@H](Cc2ccccc2)NC(=O)[C@H](CC(N)=O)NC(=O)[C@H](CCCCN)NC1=O [D-Phe^11 -somatostatin] | 70 | 0.086 | 2.87 | did not affect the increase in serum glucagon concentration | none of these compounds inhibited the increase in serum glucagon concentration | did not affect the increase in serum glucagon concentration and serum insulin concentration |  |  |  |
| C[C@H](N)C(=O)NCC(=O)N[C@H]1CSSC[C@@H](C(=O)O)NC(=O)[C@H](CO)NC(=O)[C@H]([C@@H](C)O)NC(=O)[C@H](CC2CCCCC2)NC(=O)[C@H]([C@@H](C)O)NC(=O)[C@H](CCCCN)NC(=O)[C@H](Cc2c[nH]c3ccccc23)NC(=O)[C@H](Cc2ccccc2)NC(=O)[C@H](Cc2ccccc2)NC(=O)[C@H](CC(N)=O)NC(=O)[C@H](CCCCN)NC1=O [L-Cha^11 -somatostatin] (H-AGCKNFFWKT[Cha]TSC-OH; disulfide 3-14) | 33 | 0.0825 | 2.7 | did not inhibit the increase in serum concentration of either hormone | none of these compounds inhibited the increase in serum glucagon concentration | did not inhibit the increase in serum concentration of either hormone | caused a decrease in the basal serum concentration of both insulin and glucagon | caused a decrease in the basal serum concentration of both insulin and glucagon |  |
| CC(C)C[C@@H]1NC(=O)[C@H]([C@@H](C)O)NC(=O)[C@H](CCCCN)NC(=O)[C@H](Cc2c[nH]c3ccccc23)NC(=O)[C@H](Cc2ccccc2)NC(=O)[C@H](Cc2ccccc2)NC(=O)[C@H](CC(N)=O)NC(=O)[C@H](CCCCN)NC(=O)[C@@H](NC(=O)CNC(=O)[C@H](C)N)CSSC[C@@H](C(=O)O)NC(=O)[C@H](CO)NC(=O)[C@H]([C@@H](C)O)NC1=O [L-Leu^11 -somatostatin] (H-AGCKNFFWKTLTSC-OH; disulfide 3-14) | 22 |  |  | had no effect on the increase in glucagon concentration produced by L-alanine | none of these compounds inhibited the increase in serum glucagon concentration | caused only a partial inhibition of the increase in insulin secretion | had no affect on the basal serum concentration of either insulin or glucagon | had no affect on the basal serum concentration of either insulin or glucagon | exhibits an inhibitory effect upon the pancreatic secretion of insulin |

Reference: US4061607A, “Somatostatin analogs and intermediates thereto” (Eli Lilly and Company, priority 1976, dated 1977)
